{"source": "patent US20240090503A1", "about": "“FUNGICIDAL OXADIAZOLES AND THEIR MIXTURES” (FMC CORPORATION, priority 2020, published 2024)", "assay_type_in_all_cases": "in vivo", "key": {"[1]": {"system": "Phakopsora pachyrhizi (the causal agent of Asian soybean rust)", "assay": "Test A: preventive spray on soybean seedlings, Asian soybean rust, visual disease rating", "settings": "soybean seedlings", "procedure,_shortened": "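Preventive test: soybean seedlings received a run-off spray of compound suspended at the set ppm in 50/50 acetone/water plus 250 ppm PEG400, and one day later a P. pachyrhizi spore inoculum. Visual scoring (0 none to 100 full disease control) followed 24 h saturated incubation and 8 days' growth chamber, both at 22° C.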"}, "[2]": {"system": "Zymoseptoria tritici (the causal agent of wheat leaf blotch)", "assay": "Test B: preventive spray on wheat seedlings, wheat leaf blotch, visual disease rating", "settings": "wheat seedlings", "source_text": "General protocol for preparing test suspensions for Tests A-D: the test compounds were first dissolved in acetone in an amount equal to 3% of the final volume and then suspended at the desired concentration (in ppm) in acetone and purified water (50/50 mix by volume) containing 250 ppm of the surfactant PEG400 (polyhydric alcohol esters). The resulting test suspensions were then used in Tests A-D.\nThe test suspension was sprayed to the point of run-off on wheat seedlings. The following day the seedlings were inoculated with a spore suspension of Zymoseptoria tritici (the causal agent of wheat leaf blotch) and incubated in a saturated atmosphere at 24° C. for 48 h, and then moved to a growth chamber at 20° C. for 17 days, after which time visual disease ratings were made.\nThe test results for Tests A-C presented in Table A below for compounds of Formula 1 illustrate the fungicidal activity of component (a) contributing to the plant disease control utility of compositions comprising component (a) in combination with component (b) according to the present invention. In the Table, a rating of 100 indicates 100% disease control and a rating of 0 indicates no disease control (relative to the controls). A dash (-) indicates the compound was not tested. The test suspensions were sprayed at the concentration listed in the column “Rate in ppm”, unless otherwise indicated. An asterisk “*” next to the rating indicates a 250 ppm test suspension was used, a double asterisk “**” next to the rating indicates a 100 ppm test suspension was used, and a triple asterisk “***” next to the rating indicates a 50 ppm test suspension was used."}, "[3]": {"system": "Puccinia recondita f. sp. tritici (the causal agent of wheat leaf rust)", "assay": "Test C: preventive spray on wheat seedlings, wheat leaf rust, visual disease rating", "settings": "wheat seedlings", "procedure,_shortened": "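Wheat seedlings sprayed to run-off with compound in acetone/water (50/50) with 250 ppm PEG400, then inoculated with spores the following day. After 24 h saturated humidity at 20° C. and 6 days in growth chamber at 20° C., disease rated visually as % control relative to untreated controls.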"}, "[4]": {"settings": "10 ppm test suspension, 100 = 100% disease control, 0 = no control"}, "[5]": {"settings": "250 ppm test suspension, 100 = 100% disease control"}, "[6]": {"settings": "test suspension 10 ppm, 100 = 100% disease control, 0 = no control"}, "[7]": {"settings": "test suspension 100 ppm (** next to rating)"}}, "note": "Marks after values point to notes of the source that are not given here.", "data": [{"compound": "COC(=O)c1csc(Cc2ccc(-c3noc(C(F)(F)F)n3)cc2)c1", "note": "[Compound 455]", "values": [{"measurement": "Test A disease control rating", "setting": "[1]; [4]", "value": 100, "unit": "%"}, {"measurement": "Test B disease control rating", "setting": "[2]; [5]", "value": "66* %"}, {"measurement": "Test C disease control rating", "setting": "[3]; [4]", "value": 0, "unit": "%"}]}, {"compound": "O=C(NCC(F)(F)F)c1csc(Cc2ccc(-c3noc(C(F)(F)F)n3)cc2)n1", "note": "[Compound 463, N-(2,2,2-trifluoroethyl)-2-[[4-[5-(trifluoromethyl)-1,2,4-oxadiazol-3-yl]phenyl]methyl]-4-thiazolecarboxamide]", "values": [{"measurement": "pest or weed control at 10 ppm", "setting": "[1]; Phakopsora pachyrhizi, 216 h, 10 ppm test suspension, 100 = 100% disease control, 0 = no control", "value": 100, "unit": "%"}, {"measurement": "pest or weed control at 250 ppm", "setting": "[2]; Zymoseptoria tritici, 456 h, 250 ppm test suspension, 100 = 100% disease control", "value": 65, "unit": "%"}, {"measurement": "pest or weed control at 10 ppm", "setting": "[3]; Puccinia recondita, 168 h, 10 ppm test suspension, 100 = 100% disease control, 0 = no control", "value": 100, "unit": "%"}]}, {"compound": "COC(=O)c1coc(Cc2ccc(-c3noc(C(F)(F)F)n3)cc2)n1", "note": "[Compound 490]", "values": [{"measurement": "Test A disease control rating", "setting": "[1]; [4]", "value": 100, "unit": "%"}, {"measurement": "Test B disease control rating", "setting": "[2]; [5]", "value": "94* %"}, {"measurement": "Test C disease control rating", "setting": "[3]; [4]", "value": 74, "unit": "%"}]}, {"compound": "Cc1ccccc1C(O)c1ccc(-c2noc(C(F)(F)F)n2)cc1", "note": "(stereo not drawn) [Compound 497]", "values": [{"measurement": "Test A disease control rating", "setting": "[1]; [4]", "value": 100, "unit": "%"}, {"measurement": "Test B disease control rating", "setting": "[2]; [5]", "value": "5* %"}, {"measurement": "Test C disease control rating", "setting": "[3]; [4]", "value": 0, "unit": "%"}]}, {"compound": "CN(C)N=Cc1cnn(Cc2ccc(-c3noc(C(F)(F)F)n3)cc2)c1", "note": "[compound 19]", "values": [{"measurement": "Test A disease control rating", "setting": "[1]; test suspension 250 ppm", "value": 100, "unit": "%"}, {"measurement": "Test B disease control rating", "setting": "[2]; test suspension 250 ppm", "value": 100, "unit": "%"}, {"measurement": "Test C disease control rating", "setting": "[3]; test suspension 250 ppm", "value": 100, "unit": "%"}]}, {"compound": "CON=Cc1cnn(Cc2ccc(-c3noc(C(F)(F)F)n3)cc2)c1", "note": "[compound 25]", "values": [{"measurement": "Test A disease control rating", "setting": "[1]; test suspension 250 ppm", "value": 100, "unit": "%"}, {"measurement": "Test B disease control rating", "setting": "[2]; test suspension 250 ppm", "value": "86* %"}, {"measurement": "Test C disease control rating", "setting": "[3]; test suspension 250 ppm", "value": 100, "unit": "%"}]}, {"compound": "O=C(O)CON=Cc1cnn(Cc2ccc(-c3noc(C(F)(F)F)n3)cc2)c1", "note": "[compound 26]", "values": [{"measurement": "Test A disease control rating", "setting": "[1]; test suspension 250 ppm", "value": 100, "unit": "%"}, {"measurement": "Test B disease control rating", "setting": "[2]; test suspension 250 ppm", "value": "46* %"}, {"measurement": "Test C disease control rating", "setting": "[3]; test suspension 250 ppm", "value": 100, "unit": "%"}]}, {"compound": "CCOC(=O)C1=NOC(Cc2ccc(-c3noc(C(F)(F)F)n3)cc2)C1", "note": "(stereo not drawn) [compound 29]", "values": [{"measurement": "Test A disease control rating", "setting": "[1]; [6]", "value": 73, "unit": "%"}, {"measurement": "Test B disease control rating", "setting": "[2]; test suspension 250 ppm", "value": "94* %"}, {"measurement": "Test C disease control rating", "setting": "[3]; test suspension 10 ppm", "value": 19, "unit": "%"}]}, {"compound": "C#CCOC(=O)c1cnn(Cc2ccc(-c3noc(C(F)(F)F)n3)cc2)c1", "note": "[compound 56]", "values": [{"measurement": "Test A disease control rating", "setting": "[1]; [6]", "value": 100, "unit": "%"}, {"measurement": "Test B disease control rating", "setting": "[2]; [7]", "value": "68** %"}, {"measurement": "Test C disease control rating", "setting": "[3]; test suspension 10 ppm", "value": 100, "unit": "%"}]}, {"compound": "CC(C)OC(=O)c1cnn(Cc2ccc(-c3noc(C(F)(F)F)n3)cc2)c1", "note": "[compound 58]", "values": [{"measurement": "Test A disease control rating", "setting": "[1]; [6]", "value": 100, "unit": "%"}, {"measurement": "Test B disease control rating", "setting": "[2]; [7]", "value": "83** %"}, {"measurement": "Test C disease control rating", "setting": "[3]; test suspension 10 ppm", "value": 100, "unit": "%"}]}, {"compound": "COCCOC(=O)c1cnn(Cc2ccc(-c3noc(C(F)(F)F)n3)cc2)c1", "note": "[compound 59]", "values": [{"measurement": "Test A disease control rating", "setting": "[1]; [6]", "value": 100, "unit": "%"}, {"measurement": "Test B disease control rating", "setting": "[2]; [7]", "value": "58** %"}, {"measurement": "Test C disease control rating", "setting": "[3]; test suspension 10 ppm", "value": 100, "unit": "%"}]}, {"compound": "CCCOC(=O)c1cnn(Cc2ccc(-c3noc(C(F)(F)F)n3)cc2)c1", "note": "[compound 60]", "values": [{"measurement": "Test A disease control rating", "setting": "[1]; [6]", "value": 100, "unit": "%"}, {"measurement": "Test B disease control rating", "setting": "[2]; [7]", "value": "75** %"}, {"measurement": "Test C disease control rating", "setting": "[3]; test suspension 10 ppm", "value": 100, "unit": "%"}]}, {"compound": "CCOC(=O)c1cnn(Cc2ccc(-c3noc(C(F)(F)F)n3)s2)c1", "note": "[compound 70]", "values": [{"measurement": "Test A disease control rating", "setting": "[1]; test suspension 255 ppm", "value": 100, "unit": "%"}, {"measurement": "Test B disease control rating", "setting": "[2]; test suspension 255 ppm", "value": 96, "unit": "%"}, {"measurement": "Test C disease control rating", "setting": "[3]; test suspension 255 ppm", "value": 100, "unit": "%"}]}, {"compound": "N#Cc1nn(Cc2ccc(-c3noc(C(F)(F)F)n3)s2)cc1Br", "note": "[compound 76]", "values": [{"measurement": "Test A disease control rating", "setting": "[1]; test suspension 270 ppm", "value": 100, "unit": "%"}, {"measurement": "Test B disease control rating", "setting": "[2]; test suspension 270 ppm", "value": 41, "unit": "%"}, {"measurement": "Test C disease control rating", "setting": "[3]; test suspension 270 ppm", "value": 99, "unit": "%"}]}, {"compound": "CCOC(=O)c1nn(Cc2ccc(-c3noc(C(F)(F)F)n3)cc2)nc1Br", "note": "[compound 84]", "values": [{"measurement": "Test A disease control rating", "setting": "[1]; test suspension 250 ppm", "value": 100, "unit": "%"}, {"measurement": "Test B disease control rating", "setting": "[2]; test suspension 250 ppm", "value": 66, "unit": "%"}, {"measurement": "Test C disease control rating", "setting": "[3]; test suspension 250 ppm", "value": 100, "unit": "%"}]}, {"compound": "FC(F)(F)c1nc(-c2ccc(Cn3ccc4cccnc43)cc2)no1", "note": "[compound 86]", "values": [{"measurement": "Test A disease control rating", "setting": "[1]; test suspension 250 ppm", "value": 100, "unit": "%"}, {"measurement": "Test B disease control rating", "setting": "[2]; test suspension 250 ppm", "value": 89, "unit": "%"}, {"measurement": "Test C disease control rating", "setting": "[3]; test suspension 250 ppm", "value": 100, "unit": "%"}]}, {"compound": "O=C1C(=O)N(Cc2ccc(-c3noc(C(F)(F)F)n3)cc2)c2ccccc21", "note": "[compound 87]", "values": [{"measurement": "Test A disease control rating", "setting": "[1]; test suspension 250 ppm", "value": 100, "unit": "%"}, {"measurement": "Test B disease control rating", "setting": "[2]; test suspension 250 ppm", "value": 82, "unit": "%"}, {"measurement": "Test C disease control rating", "setting": "[3]; test suspension 250 ppm", "value": 100, "unit": "%"}]}]}
